Results on five compounds are retold here after PMC8868586, “Comparison of Various Solvent Extracts and Major Bioactive Components from Unsalt-Fried and Salt-Fried Rhizomes of Anemarrhena asphodeloides for Antioxidant, Anti-α-Glucosidase, and Anti-Acetylcholinesterase Activities” (Antioxidants, 2022).

Read-outs that look alike come from different tables or passages of the source.

Test [1] in a line: ABTS radical scavenging assay. As for the experimental part: ABTS radical scavenging activity of each extract was determined as previously described.
(§1) ABTS and DPPH assays have been widely utilized to assess the antioxidant activities of natural components. Both assays are mostly connected with the proton radical scavenging or hydrogen donating capacities of the target compounds [29]. Superoxide radical scavenging activity is measured by the PMS/NADH–NBT system. Superoxide anion radicals generated from dissolved oxygen by PMS/NADH coupling reaction reduce NBT. The decrease in absorbance at 560 nm with antioxidants indicates a reduction in superoxide anion radicals in the reaction mixture. The ferric-reducing antioxidant power (FRAP) measures the antioxidant potential of each extract through the reduction of ferric iron (Fe^3+) complex to ferrous iron (Fe^2+) complex by antioxidants present in the samples [31].

Test [2] is described as follows: DPPH radical scavenging assay. On the procedure:
The DPPH radical scavenging assay was measured by the reference method.
as §1

Test [3] is described as follows: Ferric-reducing antioxidant power (FRAP) assay. As for the experimental part:
The FRAP assay was determined by the reference method with a slight modification. The working solution was mixed with acetate buffer (pH 3.6), ferric chloride solution (20 mM), and TPTZ solution (10 mM TPTZ in 40 mM HCl) in a proportion of 10:1:1, respectively, and freshly prepared before being used. A total of 900 μL of the working solution was warmed to 37 °C and then mixed with 100 μL of the diluted sample, blank or standard, in a microcentrifuge tube. The tubes were vortexed in a dry bath at 37 °C for 40 min. The absorbance was measured at 593 nm. The standard curve was linear between 0 and 100 mM Trolox. Results are expressed in mM TE/g dry weight. Additional dilution was needed if the FRAP value measured was over the linear range of the standard curve.
as §1

A short description of test [4]: Superoxide radical scavenging assay (PMS/NADH-NBT system). The note with it: isolated components. On the procedure: Superoxide anion radical (O2^•–) scavenging activity was measured using the previously described method.
as §1

The target of test [5] is T1, acetylcholinesterase (AChE) (Homo sapiens, UniProt P22303).
T1 construct: purchased Sigma-Aldrich
The test can be described thus: biochemical. The note with it: pure compounds; read-out: AchE Inhibitory Assay IC50 (converted). As for the experimental part: The inhibition assay of acetylcholinesterase was conducted using the conditions previously reported with slight modifications. Briefly, 0.1 M sodium phosphate buffer (pH 8.0, 140 μL), test compound solution (20 μL), enzyme solution (15 μL of AChE 0.2 units/mL solution), and DTNB (15 mM, 10 μL) were mixed and incubated for 10 min at room temperature. Substrate (10 μL of AchI 15 mM solution) was then added and the reaction was initiated.

The target of the next test is T2, α-glucosidase (Saccharomyces cerevisiae, UniProt P53341).
T2 construct: purchased Sigma-Aldrich
The test can be described thus: α-Glucosidase inhibitory activity assay. Type of test: biochemical. As for the experimental part:
The inhibition assay of α-glucosidase was conducted using the procedure previously reported.

The mark [6] stands for this setting: solvent extracts of AA (non-salt-fried) series.
Where [7] appears, read: solvent extracts of salt-fried AA series.
The mark [8] stands for this setting: Trolox equivalents per gram, isolated components.
Setting [9] is: pure compounds, read-out: α-Glucosidase IC50 (converted).

T2 sequence (P53341 whole entry): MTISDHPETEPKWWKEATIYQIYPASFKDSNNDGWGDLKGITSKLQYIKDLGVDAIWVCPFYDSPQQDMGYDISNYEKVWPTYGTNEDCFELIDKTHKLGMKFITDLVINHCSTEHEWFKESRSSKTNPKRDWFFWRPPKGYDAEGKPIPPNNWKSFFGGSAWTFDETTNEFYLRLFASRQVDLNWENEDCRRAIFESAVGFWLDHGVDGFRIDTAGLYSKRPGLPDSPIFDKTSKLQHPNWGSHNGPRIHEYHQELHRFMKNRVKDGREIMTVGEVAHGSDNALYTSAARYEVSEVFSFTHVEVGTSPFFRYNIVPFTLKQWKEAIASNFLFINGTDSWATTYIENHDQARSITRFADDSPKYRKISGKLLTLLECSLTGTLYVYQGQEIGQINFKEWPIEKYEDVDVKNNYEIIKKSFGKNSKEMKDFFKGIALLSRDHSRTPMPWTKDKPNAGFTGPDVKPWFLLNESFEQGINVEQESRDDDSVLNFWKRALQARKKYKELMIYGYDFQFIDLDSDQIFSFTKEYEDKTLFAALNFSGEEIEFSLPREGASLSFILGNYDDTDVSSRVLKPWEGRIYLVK
T1 sequence (P22303 32-614): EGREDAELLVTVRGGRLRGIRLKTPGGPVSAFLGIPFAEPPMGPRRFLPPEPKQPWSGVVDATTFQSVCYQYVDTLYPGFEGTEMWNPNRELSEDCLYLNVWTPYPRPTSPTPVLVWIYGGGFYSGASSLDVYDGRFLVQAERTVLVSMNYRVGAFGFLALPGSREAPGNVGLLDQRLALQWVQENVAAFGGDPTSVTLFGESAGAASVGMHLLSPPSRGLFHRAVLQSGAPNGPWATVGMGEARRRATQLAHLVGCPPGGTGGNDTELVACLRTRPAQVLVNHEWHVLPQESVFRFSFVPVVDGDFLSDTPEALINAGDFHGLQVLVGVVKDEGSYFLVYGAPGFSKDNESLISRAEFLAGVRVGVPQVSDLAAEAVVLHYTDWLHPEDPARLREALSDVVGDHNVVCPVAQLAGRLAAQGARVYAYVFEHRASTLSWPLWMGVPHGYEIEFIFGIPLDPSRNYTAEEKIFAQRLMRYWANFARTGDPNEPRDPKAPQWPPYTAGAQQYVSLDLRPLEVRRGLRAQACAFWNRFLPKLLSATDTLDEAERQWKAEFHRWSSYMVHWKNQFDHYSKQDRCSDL

For the compound `Cc1cc(C(C)(C)C)c(O)c(C(C)(C)C)c1` [BHT, Butylated hydroxytoluene, reference compound], the “ABTS IC50” value in test [1] (isolated components) amounted to 15.4 ± 0.9 µg/mL; in test [1] (setting [6]), 20.6 ± 0.2 µg/mL; in test [1] (setting [7]), 19.6 ± 0.4 µg/mL. Also, the “DPPH IC50” value is 27.2 ± 1.9 µg/mL in test [2] (isolated components), 35.5 ± 0.6 µg/mL in test [2] (setting [6]) and 39.7 ± 1.4 µg/mL in test [2] (setting [7]). For the same compound, the “FRAP (TE)” value is listed as 4297.0 ± 48.4 mM/g in test [3] (Trolox equivalents per gram of extract, AA (non-salt-fried) series); 4216.1 ± 66.5 mM/g in test [3] (Trolox equivalents per gram of extract, salt-fried AA series); 3963.9 ± 104.0 mM/g in test [3] (setting [8]).

Consider `O=c1c2cc(O)c(O)cc2oc2c([C@@H]3O[C@H](CO)[C@@H](O)[C@H](O)[C@H]3O)c(O)cc(O)c12` [Isomangiferin, isomangiferin], for which the “ABTS IC50” value in test [1] (isolated components) was determined as 5.6 ± 0.4 µg/mL. Further, the “Superoxide IC50” value in test [4] is 155.3 ± 13.8 µg/mL. Also, in test [2] (isolated components), the “DPPH IC50” value amounted to 16.7 ± 1.1 µg/mL. Also, the 50% inhibitory concentration (IC50) in test [5] was 227 µM; on α-glucosidase, 434 µM. Also, the “FRAP (TE)” value in test [3] (setting [8]) amounted to 6359.9 ± 176.8 mM/g.

On to `O=c1c2cc(O)c(O)cc2oc2cc(O)c([C@@H]3O[C@H](CO)[C@@H](O)[C@H](O)[C@H]3O)c(O)c12` [Mangiferin, mangiferin], for which the “ABTS IC50” value in test [1] (isolated components) was found to be 3.7 ± 0.2 µg/mL. In addition, the “Superoxide IC50” value in test [4] worked out at 53.8 ± 2.4 µg/mL. Also, the “DPPH IC50” value in test [2] (isolated components) worked out at 5.4 ± 0.3 µg/mL. The IC50 in test [5] was 161 µM; at α-glucosidase (setting [9]) it was 146 µM. Further, the “FRAP (TE)” value in test [3] (setting [8]) was found to be 9371.4 ± 183.9 mM/g. Besides, the “potency against α-glucosidase relative to acarbose” value at α-glucosidase (fold stronger than acarbose) is listed as “about five-fold”.

`O=c1c2cc(O[C@@H]3O[C@H](CO)[C@@H](O)[C@H](O)[C@H]3O)c(O)cc2oc2cc(O)c([C@@H]3O[C@H](CO)[C@@H](O)[C@H](O)[C@H]3O)c(O)c12` [Neomangiferin, neomangiferin]: the “ABTS IC50” value in test [1] (isolated components) was determined as 81.9 ± 4.6 µg/mL. The “Superoxide IC50” value in test [4] is above 200 µg/mL. In addition, the “DPPH IC50” value in test [2] (isolated components) was above 200 µg/mL. For the same compound, the values for the IC50 (in test [5]; against α-glucosidase) were 121 µM and above 684 µM, respectively. Moreover, the “FRAP (TE)” value in test [3] (setting [8]) was 83.1 ± 5.3 mM/g.

Regarding `C[C@H]1CC[C@@]2(OC1)O[C@H]1C[C@H]3[C@@H]4CC[C@@H]5C[C@@H](O[C@@H]6O[C@H](CO)[C@H](O)[C@H](O)[C@H]6O[C@@H]6O[C@H](CO)[C@@H](O)[C@H](O)[C@H]6O)CC[C@]5(C)[C@H]4CC[C@]3(C)[C@H]1[C@@H]2C` [Timosaponin A-III, timosaponin A-III], in test [1] (isolated components), the “ABTS IC50” value was above 200 µg/mL. Further, in test [4], the “Superoxide IC50” value is above 200 µg/mL. Further, the “DPPH IC50” value in test [2] (isolated components) is above 200 µg/mL. The figures for the half-inhibitory concentration (IC50) (in test [5]; on α-glucosidase (setting [9])) were 179 µM and 97.9 µM, respectively. The “FRAP (TE)” value in test [3] (setting [8]) came to 19.5 ± 3.9 mM/g.
